Experimental data published in ChEMBL document CHEMBL5352470, “RS6077 induces mitotic arrest and selectively activates cell death in human cancer cell lines and in a lymphoma tumor in vivo” (Eur J Med Chem, 2023).

Tests used:
[1] = Toxicity in human T cells derived from human PBMC assessed as early apoptotic cells at 2.5 uM measured for 48 hrs by annexin V-FITC and PI staining based flow cytometry analysis (reference value: 6.75 to 8.22 %); settings: t-cell
AHH-1 [2] = assay: Induction of cell cycle arrest in human AHH-1 cells assessed as accumulation of cells at G2/M phase at 2500 nM incubated for 72 hrs by annexin V-FITC and PI staining based flow cytometry analysis; type: functional
[3] = Metabolic stability in mouse liver microsome assessed as intrinsic clearance measured upto 60 mins by LC-MS/MS analysis; type: ADME; settings: liver microsomes, read-out: CLH
[4] = Toxicity in human T cells derived from human PBMC assessed as viable cells at 1 uM measured for 72 hrs by annexin V-FITC and PI staining based flow cytometry analysis (reference value: 66.5 to 77.5 %); type: cell-based, T-cell; settings: read-out: Activity
HeLa [5] = assay: Induction of apoptosis in human HeLa cells assessed as viable cells measured after 72 hrs by annexin V-FITC and PI staining based flow cytometry analysis; type: functional, cell-based; settings: dose 100-2500 nM
HeLa [6] = assay: Induction of cell cycle arrest in human HeLa cells assessed as accumulation of cells at S phase at 2500 nM incubated for 72 hrs by annexin V-FITC and PI staining based flow cytometry analysis; type: functional
[7] = Toxicity in human T cells derived from human PBMC assessed as late apoptotic cells at 0.1 uM measured for 72 hrs by annexin V-FITC and PI staining based flow cytometry analysis (reference value: 11.5 to 17.6%); settings: t-cell
[8] = Toxicity in human T cells derived from human PBMC assessed as necrotic cells at 2.5 uM measured for 48 hrs by annexin V-FITC and PI staining based flow cytometry analysis (reference value: 0.31 to 0.48 %); settings: t-cell
[9] = Toxicity in human T cells derived from human PBMC assessed as necrotic cells at 0.1 uM measured for 72 hrs by annexin V-FITC and PI staining based flow cytometry analysis (reference value: 0.48 to 0.56 %); settings: t-cell
[10] = Toxicity in human T cells derived from human PBMC assessed as necrotic cells at 1 uM measured for 48 hrs by annexin V-FITC and PI staining based flow cytometry analysis (reference value: 0.31 to 0.48 %); settings: t-cell
[11] = Toxicity in human T cells derived from human PBMC assessed as viable cells at 0.1 uM measured for 48 hrs by annexin V-FITC and PI staining based flow cytometry analysis (reference value: 77.5 to 79.5 %); type: cell-based, T-cell; settings: read-out: Activity
TERT-RPE1 = assay: Induction of cell cycle arrest in human TERT-RPE1 cells assessed as accumulation of cells at G1 phase at 2500 nM incubated for 72 hrs by annexin V-FITC and PI staining based flow cytometry analysis; type: functional
AHH-1 [12] = assay: Induction of cell cycle arrest in human AHH-1 cells assessed as accumulation of cells at S phase at 2500 nM incubated for 72 hrs by annexin V-FITC and PI staining based flow cytometry analysis; type: functional

In the case of `COc1cc(C(=O)c2ccn(-c3ncnc4[nH]ccc34)c2)cc(OC)c1OC`, the Activity [1] is reported as 7.06%, the Activity (AHH-1 [2]) is reported as 69.7% and the microsomal CLint [3] is reported as 96 µL/min/mg. For the same molecule, the viability at 72 h, 1 µM [4] was 64.7%, the Activity (HeLa [5]) was “Dose-Dependent Effect” and the Activity (HeLa [6]) was 48.7%. The Activity [7] was 11.8%, the Activity [8] was 0.41% and the Activity [9] was 0.48%. The Activity [10] was 0.24%, the viability at 48 h, 0.1 µM [11] was 75.4% and the Activity (TERT-RPE1) was 17.6%. It also gave an Activity (AHH-1 [12]) of 19.4%.
